Assay results reported in patent publication US20260306502A1, “MITOCHONDRIAL UNCOUPLERS FOR TREATMENT OF METABOLIC DISEASES AND CANCER” (Mito Biopharma, LLC, priority 2022, published 2026).
Read-outs that look alike come from different tables or passages of the source.

Tests used:
C2C12 cells = test: Mitochondrial uncoupling activity by oxygen consumption rate (OCR) assay, Seahorse, in presence of oligomycin; assay type: cell-based, mouse; details: Mus musculus, C2C12
Experimental: By definition, mitochondrial uncoupling is the decoupling of mitochondrial electron transport chain activity (mitochondrial oxidation) from ATP synthesis by mitochondrial ATP synthase. Technically, mitochondrial uncoupling activity is defined by the ability of a chemical compound to induce oxygen consumption of cells or isolated mitochondria in the presence of a mitochondrial ATP synthase inhibitor such as oligomycin. Accordingly, mitochondrial uncoupling activity was determined by oxygen consumption rate assay with a Seahorse XF96 or a Seahorse XF24 instrument following the vendor's instruction, using mouse myoblast C2C12 cells grown in a medium containing 10% fetal bovine serum. OCR was measured stepwise under the following conditions: first under normal growth conditions; then. OCR was measured after oligomycin was added to reach a final concentration of 2.5 μM); then OCR was measured after the compound was further added at varying concentrations. Finally, rotenone and antimycin A were added to confirm that the measurement was mitochondrial oxygen consumption (rotenone and […] mitochondrial electron transport chain inhibitors).
COCR-min the minimal concentration required for each compound to induce OCR in the presence of oligomycin, of disclosed compounds, was also determined by varying the final concentration of the compound added to the Seahorse OCR analysis experiment as described above (FIG. 2, varying testing compound concentration). Table 8 summarizes the mitochondrial uncoupling activity of disclosed compounds, as represented by COCR-min.

[1] = PO pharmacokinetic study, oral exposure (Example B3); assay type: in vivo; details: blood, po; for AUC at 24 h: 10 mg/kg gavage
Experimental: The blood concentration of the compound was then determined at 0 (pre-dosing), 5 min, 15 min, 30 min, 1 hr, 2 hr, 4 hr, 8 hr, 24 hr time points by LC-MS/MS analysis (See Tables 1 and 2, vide supra).

[2] = in the presence of oligomycin 2.5 μM, read-out: COCR-min: minimal concentration increasing OCR in the presence of oligomycin
[3] = minimal concentration leading to OCR increase, read-out: Activity (Cmin-OCR)

| SMILES | minimal effective concentration (C2C12 cells; [2]) [µM] | AUC at 24 h [1] [ng·h/mL] | also measured |
| --- | --- | --- | --- |
| COCCOCc1cc(Cl)cc(C(=O)Nc2nc3ccc(C(F)(F)F)cc3s2)c1O [Compound 2, 5-chloro-2-hydroxy-3-((2-methoxyethoxy)methyl)-N-(6-(trifluoromethyl)benzo[d]thiazol-2-yl)benzamide] | < 5 | > 120000 | AUC(0-t) at 24 h ([1]; 10 mg/kg): 485000 ng·h/mL |
| COCCN(C)Cc1cc(Cl)cc(C(=O)Nc2nc3ccc(C(F)(F)F)cc3s2)c1O [Compound 3, 5-chloro-2-hydroxy-3-(((2-methoxyethyl)(methyl)amino)methyl)-N-(6-(trifluoromethyl)benzo[d]thiazol-2-yl)benzamide] | < 5 | 10000 to 30000 | – |
| COCCOCc1cc(Cl)cc(C(=O)Nc2ccc(C(F)(F)F)cc2Cl)c1O [Compound 4, 5-chloro-N-(2-chloro-4-(trifluoromethyl)phenyl)-2-hydroxy-3-((2-methoxyethoxy)methyl)benzamide] | < 5 | 30000 to 60000 | – |
| COCc1cc(Cl)cc(C(=O)Nc2nc3ccc(C(F)(F)F)cc3s2)c1O [Compound 9, 5-chloro-2-hydroxy-3-(methoxymethyl)-N-(6-(trifluoromethyl)benzo[d]thiazol-2-yl)benzamide] | < 5 | > 120000 | AUC(0-t) at 24 h ([1]; 10 mg/kg): 180000 ng·h/mL |
| O=C(Nc1nc2ccc(C(F)(F)F)cc2s1)c1cc(Cl)cc(C2CCOC2)c1O (centres unmarked) [Compound 14, 5-chloro-2-hydroxy-3-(tetrahydrofuran-3-yl)-N-(6-(trifluoromethyl)benzo[d]thiazol-2-yl)benzamide] | < 5 | > 120000 | – |
| Cl.O=C(Nc1nc2ccc(C(F)(F)F)cc2s1)c1cc(Cl)cc(CCN2CCOCC2)c1O [Compound 17, 5-chloro-2-hydroxy-3-(2-morpholinoethyl)-N-(6-(trifluoromethyl)benzo[d]thiazol-2-yl)benzamide] | < 5 | 10000 to 30000 | – |
| O=C(Nc1nc2ccc(C(F)(F)F)cc2s1)c1cc(Cl)cc(CN2CCCCC2)c1O [Compound 26, 5-chloro-2-hydroxy-3-(piperidin-1-ylmethyl)-N-(6-(trifluoromethyl)benzo[d]thiazol-2-yl)benzamide] | < 5 | 10000 to 30000 | – |
| O=C(Nc1nc2ccc(C(F)(F)F)cc2s1)c1cc(Cl)cc(CN2CCC2)c1O [Compound 27, 3-(azetidin-1-ylmethyl)-5-chloro-2-hydroxy-N-(6-(trifluoromethyl)benzo[d]thiazol-2-yl)benzamide] | < 5 | 30000 to 60000 | – |
| O=C(Nc1nc2ccc(C(F)(F)F)cc2s1)c1cc(Cl)ccc1O [Compound 31 in WO 2016/081599, reference compound] | – | – | AUC(0-t) at 24 h ([1]; 20 mg/kg): ~2400 ng·h/mL |
| COC1CCN(Cc2cc(Cl)cc(C(=O)Nc3nc4ccc(C(F)(F)F)cc4s3)c2O)C1 (centres unmarked) [Compound 32, 5-chloro-2-hydroxy-3-((3-methoxypyrrolidin-1-yl)methyl)-N-(6-(trifluoromethyl)benzo[d]thiazol-2-yl)benzamide] | < 5 | 30000 to 60000 | – |
| COCCOCc1cc(C(F)(F)F)cc2sc(NC(=O)c3cc(Cl)cc(CN4CCOCC4)c3O)nc12 [Compound 65, 5-chloro-2-hydroxy-N-(4-((2-methoxyethoxy)methyl)-6-(trifluoromethyl)benzo[d]thiazol-2-yl)-3-(morpholinomethyl)benzamide] | < 5 | 60000 to 120000 | – |
| Cc1cc(Cl)cc(C(=O)Nc2nc3c(COCCNS(C)(=O)=O)cc(C(F)(F)F)cc3s2)c1O [Compound 91, 5-chloro-2-hydroxy-3-methyl-N-(4-((2-(methylsulfonamido)ethoxy)methyl)-6-(trifluoromethyl)benzo[d]thiazol-2-yl)benzamide] | < 5 | – | – |
| C[C@@H]1CN(Cc2cc(Cl)cc(C(=O)Nc3nc4c(COCCNS(C)(=O)=O)cc(C(F)(F)F)cc4s3)c2O)C[C@H](C)O1 [Compound 92, 5-chloro-3-((cis-2,6-dimethylmorpholino)methyl)-2-hydroxy-N-(4-((2-(methylsulfonamido)ethoxy)methyl)-6-(trifluoromethyl)benzo[d]thiazol-2-yl)benzamide] | < 5 | – | – |
| COCCN(CCOC)Cc1cc(Cl)cc(C(=O)Nc2nc3c(COCCNS(C)(=O)=O)cc(C(F)(F)F)cc3s2)c1O [Compound 93, 3-((bis(2-methoxyethyl)amino)methyl)-5-chloro-2-hydroxy-N-(4-((2-(methylsulfonamido)ethoxy)methyl)-6-(trifluoromethyl)benzo[d]thiazol-2-yl)benzamide] | < 5 | – | – |
| O=C(Nc1nc2ccc(C(F)(F)F)cc2s1)c1cc(Cl)cc(CN2CCCC(F)C2)c1O (centres unmarked) [Example 58, 5-chloro-3-((3-fluoropiperidin-1-yl)methyl)-2-hydroxy-N-(6-(trifluoromethyl)benzo[d]thiazol-2-yl)benzamide] | < 5 | – | – |
| O=C(Nc1nc2ccc(C(F)(F)F)cc2s1)c1cc(Cl)cc(CN2CCCC(F)(F)C2)c1O [Example 59, 5-chloro-3-((3,3-difluoropiperidin-1-yl)methyl)-2-hydroxy-N-(6-(trifluoromethyl)benzo[d]thiazol-2-yl)benzamide] | < 5 | – | – |
| O=C(Nc1nc2ccc(C(F)(F)F)cc2s1)c1cc(Cl)cc(CN2CCC(F)CC2)c1O [Example 60, 5-chloro-3-((4-fluoropiperidin-1-yl)methyl)-2-hydroxy-N-(6-(trifluoromethyl)benzo[d]thiazol-2-yl)benzamide] | < 5 | – | – |
| O=C(Nc1nc2ccc(C(F)(F)F)cc2s1)c1cc(Cl)cc(CN2CCCC(C(F)(F)F)C2)c1O (centres unmarked) [Example 61, 5-chloro-2-hydroxy-N-(6-(trifluoromethyl)benzo[d]thiazol-2-yl)-3-((3-(trifluoromethyl)piperidin-1-yl)methyl)benzamide] | < 5 | – | – |
| O=C(Nc1nc2ccc(C(F)(F)F)cc2s1)c1cc(Cl)cc(CN2CCC(F)(F)CC2)c1O [Example 62, 5-chloro-3-((4,4-difluoropiperidin-1-yl)methyl)-2-hydroxy-N-(6-(trifluoromethyl)benzo[d]thiazol-2-yl)benzamide] | < 5 | – | – |
| C[C@@H]1CN(Cc2cc(Cl)cc(C(=O)Nc3nc4c(CNS(C)(=O)=O)cc(C(F)(F)F)cc4s3)c2O)C[C@H](C)O1 [Example 72, 5-chloro-3-((cis-2,6-dimethylmorpholino)methyl)-2-hydroxy-N-(4-(methylsulfonamidomethyl)-6-(trifluoromethyl)benzo[d]thiazol-2-yl)benzamide] | < 5 | – | – |
| COCCN(CCOC)Cc1cc(Cl)cc(C(=O)Nc2nc3c(CNS(C)(=O)=O)cc(C(F)(F)F)cc3s2)c1O [Example 74, 3-((bis(2-methoxyethyl)amino)methyl)-5-chloro-2-hydroxy-N-(4-(methylsulfonamidomethyl)-6-(trifluoromethyl)benzo[d]thiazol-2-yl)benzamide] | < 5 | – | – |
| C[C@@H]1CN(Cc2cc(Cl)cc(C(=O)Nc3nc4c(CN5CCN(C)CC5)cc(C(F)(F)F)cc4s3)c2O)C[C@H](C)O1 [Example 79, 5-chloro-3-((cis-2,6-dimethylmorpholino)methyl)-2-hydroxy-N-(4-((4-methylpiperazin-1-yl)methyl)-6-(trifluoromethyl)benzo[d]thiazol-2-yl)benzamide] | < 5 | – | – |
| CCC(=O)NCc1cc(C(F)(F)F)cc2sc(NC(=O)c3cc(Cl)cc(C)c3O)nc12 [Example 90, 5-chloro-2-hydroxy-3-methyl-N-(4-(propionamidomethyl)-6-(trifluoromethyl)benzo[d]thiazol-2-yl)benzamide] | 5 to 10 | – | – |
| Cc1cc(Cl)cc(C(=O)Nc2nc3c(C4CCN(C)CC4)cc(C(F)(F)F)cc3s2)c1O [Example 94, 5-chloro-2-hydroxy-3-methyl-N-(4-(1-methylpiperidin-4-yl)-6-(trifluoromethyl)benzo[d]thiazol-2-yl)benzamide] | < 5 | – | – |
| Cc1cc(Cl)cc(C(=O)Nc2nc3c(CN4CCOCC4)cc(C(F)(F)F)cc3s2)c1O [Example 95, 5-chloro-2-hydroxy-3-methyl-N-(4-(morpholinomethyl)-6-(trifluoro-methyl)benzo[d]thiazol-2-yl)benzamide] | < 5 | – | – |
| Cc1cc(Cl)cc(C(=O)Nc2nc3c(CN(C)C)cc(C(F)(F)F)cc3s2)c1O [Example 96, 5-chloro-N-(4-((dimethylamino)methyl)-6-(trifluoromethyl)benzo[d]thiazol-2-yl)-2-hydroxy-3-methylbenzamide] | < 5 | – | – |
| O=C(Nc1ccc(C(F)(F)F)nc1)c1cc(Cl)cc(C2CCOC2)c1O (centres unmarked) [Example 98, 5-chloro-2-hydroxy-3-(tetrahydrofuran-3-yl)-N-(6-(trifluoromethyl)pyridin-3-yl)benzamide] | > 10 | – | – |
| COCOCc1cc(Cl)cc(C(=O)Nc2nc3ccc(C(F)(F)F)cc3s2)c1O [drawing 255] | – | – | minimal effective concentration (C2C12 cells; [3]): 2.5 µM |
| COCCOCc1cc(Cl)cc(C(=O)Nc2nc3ccc(C(F)(F)F)cc3s2)c1O [drawing 256] | – | – | minimal effective concentration (C2C12 cells; [3]): 2.5 µM |
